Positions of bridges follow the written chain, without caps; N, C: chain ends. Residues, ends and D or L forms follow the SMILES beside them.
Legend:
rα7 nAChR = rα7 nAChR (Rattus norvegicus, UniProt Q05941); type: cell-based; conditions: at 20 μM
rα4β2 nAChR = rα4β2 nAChR (Rattus norvegicus, UniProt P09483+P12390); assay: cell-based; type: cell-based
rα9α10 nAChR = rα9α10 nAChR (Rattus norvegicus, UniProt P43144+Q9JLB5); assay: cell-based; type: cell-based
rα3β4 nAChR = rα3β4 nAChR (Rattus norvegicus, UniProt P04757+P12392); assay: cell-based; type: cell-based
Chain of rα3β4 nAChR (P04757 26-499 limits assumed): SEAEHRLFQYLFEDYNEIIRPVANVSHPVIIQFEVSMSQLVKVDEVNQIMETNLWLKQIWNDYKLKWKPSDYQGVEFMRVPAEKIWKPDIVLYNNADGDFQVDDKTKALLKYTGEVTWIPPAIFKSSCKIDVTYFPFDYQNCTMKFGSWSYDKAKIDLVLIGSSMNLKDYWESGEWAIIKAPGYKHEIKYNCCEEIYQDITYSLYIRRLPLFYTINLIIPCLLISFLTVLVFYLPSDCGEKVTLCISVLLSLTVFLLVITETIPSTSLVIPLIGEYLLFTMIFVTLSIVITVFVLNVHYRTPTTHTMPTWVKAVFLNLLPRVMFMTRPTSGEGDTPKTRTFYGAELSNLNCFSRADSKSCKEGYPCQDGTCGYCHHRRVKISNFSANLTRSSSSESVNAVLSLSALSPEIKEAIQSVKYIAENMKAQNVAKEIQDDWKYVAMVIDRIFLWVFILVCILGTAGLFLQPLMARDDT
Chain of rα3β4 nAChR (P12392 21-495 limits assumed): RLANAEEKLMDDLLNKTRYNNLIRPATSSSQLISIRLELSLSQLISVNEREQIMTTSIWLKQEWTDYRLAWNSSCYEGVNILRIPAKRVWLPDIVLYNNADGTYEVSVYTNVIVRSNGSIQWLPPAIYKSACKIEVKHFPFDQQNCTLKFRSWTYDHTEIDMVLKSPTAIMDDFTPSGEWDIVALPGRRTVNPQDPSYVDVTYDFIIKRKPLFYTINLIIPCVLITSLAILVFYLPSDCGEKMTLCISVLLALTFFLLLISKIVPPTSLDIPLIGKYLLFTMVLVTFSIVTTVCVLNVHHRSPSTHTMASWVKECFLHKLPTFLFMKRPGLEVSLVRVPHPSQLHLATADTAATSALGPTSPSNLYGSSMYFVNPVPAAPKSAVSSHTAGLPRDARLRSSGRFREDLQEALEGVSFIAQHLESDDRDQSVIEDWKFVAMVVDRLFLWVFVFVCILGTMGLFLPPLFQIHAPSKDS

rα6/α3β2β3 nAChR = rα6/α3β2β3 nAChR (Rattus norvegicus, UniProt P04757+P12390+P12391+P43143); assay: cell-based
Chain of rα6/α3β2β3 nAChR (P04757 whole entry, looked up): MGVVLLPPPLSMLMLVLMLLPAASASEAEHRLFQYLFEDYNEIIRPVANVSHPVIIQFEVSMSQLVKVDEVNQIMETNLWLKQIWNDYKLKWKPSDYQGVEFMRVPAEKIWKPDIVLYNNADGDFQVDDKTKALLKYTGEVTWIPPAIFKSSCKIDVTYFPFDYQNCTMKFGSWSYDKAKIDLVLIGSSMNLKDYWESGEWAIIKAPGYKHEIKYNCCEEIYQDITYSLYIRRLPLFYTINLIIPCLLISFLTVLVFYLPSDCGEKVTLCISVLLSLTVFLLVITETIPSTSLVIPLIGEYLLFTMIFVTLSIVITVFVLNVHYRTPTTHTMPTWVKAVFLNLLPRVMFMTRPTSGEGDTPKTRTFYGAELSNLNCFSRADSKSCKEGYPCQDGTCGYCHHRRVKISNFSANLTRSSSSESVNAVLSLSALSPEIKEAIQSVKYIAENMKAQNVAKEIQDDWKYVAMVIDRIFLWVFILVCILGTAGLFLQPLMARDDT
Chain of rα6/α3β2β3 nAChR (P12390 whole entry, looked up): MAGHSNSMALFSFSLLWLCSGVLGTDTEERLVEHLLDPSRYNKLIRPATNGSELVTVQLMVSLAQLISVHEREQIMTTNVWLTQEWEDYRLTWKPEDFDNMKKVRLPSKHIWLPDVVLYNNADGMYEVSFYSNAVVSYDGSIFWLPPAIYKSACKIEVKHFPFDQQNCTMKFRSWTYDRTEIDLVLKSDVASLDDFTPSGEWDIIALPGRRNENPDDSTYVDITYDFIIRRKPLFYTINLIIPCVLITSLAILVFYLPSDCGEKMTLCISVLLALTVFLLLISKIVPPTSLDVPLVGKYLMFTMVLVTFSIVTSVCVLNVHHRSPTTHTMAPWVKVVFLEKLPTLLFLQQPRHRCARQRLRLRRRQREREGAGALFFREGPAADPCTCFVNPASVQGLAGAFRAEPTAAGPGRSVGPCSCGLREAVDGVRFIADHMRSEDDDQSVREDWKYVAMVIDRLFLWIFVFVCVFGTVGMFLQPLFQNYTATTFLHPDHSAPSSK
Chain of rα6/α3β2β3 nAChR (P12391 whole entry, looked up): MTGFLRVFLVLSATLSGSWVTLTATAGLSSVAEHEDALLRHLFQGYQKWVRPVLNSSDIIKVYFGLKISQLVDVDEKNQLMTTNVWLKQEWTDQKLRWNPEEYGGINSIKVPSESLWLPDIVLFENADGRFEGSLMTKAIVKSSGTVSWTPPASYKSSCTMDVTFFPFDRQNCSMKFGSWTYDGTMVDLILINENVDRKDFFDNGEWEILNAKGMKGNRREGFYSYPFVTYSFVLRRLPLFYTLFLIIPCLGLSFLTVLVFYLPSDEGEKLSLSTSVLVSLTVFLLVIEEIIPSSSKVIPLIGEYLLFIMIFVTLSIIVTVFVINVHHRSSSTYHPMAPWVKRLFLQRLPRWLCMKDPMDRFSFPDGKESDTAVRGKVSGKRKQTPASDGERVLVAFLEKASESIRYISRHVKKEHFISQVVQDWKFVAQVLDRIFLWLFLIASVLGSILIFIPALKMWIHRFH
Chain of rα6/α3β2β3 nAChR (P43143 whole entry, looked up): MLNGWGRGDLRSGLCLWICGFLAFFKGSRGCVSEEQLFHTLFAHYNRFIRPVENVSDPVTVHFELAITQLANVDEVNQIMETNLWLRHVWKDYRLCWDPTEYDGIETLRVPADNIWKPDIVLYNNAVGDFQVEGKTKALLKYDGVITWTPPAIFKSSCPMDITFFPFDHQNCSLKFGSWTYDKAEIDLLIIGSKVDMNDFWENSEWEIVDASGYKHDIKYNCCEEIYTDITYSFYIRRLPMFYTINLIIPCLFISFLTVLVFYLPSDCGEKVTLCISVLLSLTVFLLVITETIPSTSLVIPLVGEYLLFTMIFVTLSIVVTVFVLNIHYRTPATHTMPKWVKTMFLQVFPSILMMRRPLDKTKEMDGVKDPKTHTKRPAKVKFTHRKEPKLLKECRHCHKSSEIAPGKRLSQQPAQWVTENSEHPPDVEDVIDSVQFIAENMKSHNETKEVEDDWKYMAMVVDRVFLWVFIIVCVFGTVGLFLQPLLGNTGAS

rα6/α3β4 nAChR = rα6/α3β4 nAChR (Rattus norvegicus, UniProt P04757+P12392+P43143); assay: cell-based; conditions: 20–25 °C
hα9α10 nAChR = hα9α10 nAChR (Homo sapiens, UniProt Q9GZZ6+Q9UGM1); assay: cell-based
Chain of hα9α10 nAChR (Q9UGM1 26-479 limits assumed): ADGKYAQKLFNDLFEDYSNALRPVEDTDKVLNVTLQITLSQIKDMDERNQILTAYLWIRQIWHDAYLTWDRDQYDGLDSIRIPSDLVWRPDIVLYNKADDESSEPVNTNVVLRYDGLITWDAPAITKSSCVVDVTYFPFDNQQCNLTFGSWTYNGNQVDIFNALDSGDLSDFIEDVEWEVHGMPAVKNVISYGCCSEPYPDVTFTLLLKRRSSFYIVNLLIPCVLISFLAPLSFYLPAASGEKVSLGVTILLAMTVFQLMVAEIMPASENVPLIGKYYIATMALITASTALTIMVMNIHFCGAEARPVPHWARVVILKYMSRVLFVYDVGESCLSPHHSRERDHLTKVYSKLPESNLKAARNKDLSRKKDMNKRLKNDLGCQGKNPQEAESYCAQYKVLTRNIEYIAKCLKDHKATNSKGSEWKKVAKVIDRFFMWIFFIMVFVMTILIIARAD
Chain of hα9α10 nAChR (Q9GZZ6 25-450 limits assumed): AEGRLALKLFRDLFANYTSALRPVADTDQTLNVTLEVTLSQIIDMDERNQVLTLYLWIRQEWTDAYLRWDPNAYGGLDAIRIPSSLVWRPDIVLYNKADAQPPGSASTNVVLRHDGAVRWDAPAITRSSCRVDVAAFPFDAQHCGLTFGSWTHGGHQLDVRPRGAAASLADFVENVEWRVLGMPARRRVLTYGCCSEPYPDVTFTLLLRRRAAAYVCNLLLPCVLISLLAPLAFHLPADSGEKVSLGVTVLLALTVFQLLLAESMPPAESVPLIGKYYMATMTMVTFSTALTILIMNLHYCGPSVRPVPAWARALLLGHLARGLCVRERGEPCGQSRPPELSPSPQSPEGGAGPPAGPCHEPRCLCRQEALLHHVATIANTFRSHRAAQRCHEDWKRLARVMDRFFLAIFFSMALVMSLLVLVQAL

rα3β2 nAChR = rα3β2 nAChR (Rattus norvegicus, UniProt P04757+P12390); assay: cell-based; conditions: 20–25 °C
Chain of rα3β2 nAChR (P04757 26-499 limits assumed): as the sequence (P04757 26-499 limits assumed) above
Chain of rα3β2 nAChR (P12390 25-500 limits assumed): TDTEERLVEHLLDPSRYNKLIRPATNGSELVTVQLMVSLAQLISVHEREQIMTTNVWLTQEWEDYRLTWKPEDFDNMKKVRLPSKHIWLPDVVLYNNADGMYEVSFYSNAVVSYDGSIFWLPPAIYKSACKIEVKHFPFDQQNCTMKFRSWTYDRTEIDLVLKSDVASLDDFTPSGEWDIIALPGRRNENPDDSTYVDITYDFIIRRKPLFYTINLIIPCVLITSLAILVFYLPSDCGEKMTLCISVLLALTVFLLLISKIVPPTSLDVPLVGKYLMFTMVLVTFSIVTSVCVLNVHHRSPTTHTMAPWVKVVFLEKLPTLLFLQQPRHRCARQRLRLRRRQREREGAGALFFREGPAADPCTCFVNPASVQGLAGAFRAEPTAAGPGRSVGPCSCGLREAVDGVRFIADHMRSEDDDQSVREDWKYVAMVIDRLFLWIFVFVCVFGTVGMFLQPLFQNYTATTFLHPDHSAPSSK

Chain of rα4β2 nAChR (P09483 31-630 limits assumed): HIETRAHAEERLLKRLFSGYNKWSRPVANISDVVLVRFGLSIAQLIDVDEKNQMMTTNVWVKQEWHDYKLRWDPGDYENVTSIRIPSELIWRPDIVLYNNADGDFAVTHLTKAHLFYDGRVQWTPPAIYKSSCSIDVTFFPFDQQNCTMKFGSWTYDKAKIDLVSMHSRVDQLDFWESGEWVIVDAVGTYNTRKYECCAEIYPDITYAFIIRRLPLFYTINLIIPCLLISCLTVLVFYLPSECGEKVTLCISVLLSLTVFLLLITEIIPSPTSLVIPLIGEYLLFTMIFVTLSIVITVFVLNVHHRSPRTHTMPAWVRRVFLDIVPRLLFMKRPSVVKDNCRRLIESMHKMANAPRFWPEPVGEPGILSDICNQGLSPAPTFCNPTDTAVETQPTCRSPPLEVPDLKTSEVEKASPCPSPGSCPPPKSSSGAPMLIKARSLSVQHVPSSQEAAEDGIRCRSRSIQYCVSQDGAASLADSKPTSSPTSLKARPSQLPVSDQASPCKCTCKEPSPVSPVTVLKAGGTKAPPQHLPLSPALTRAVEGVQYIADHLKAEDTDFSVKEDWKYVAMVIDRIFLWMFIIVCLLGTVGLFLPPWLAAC
Chain of rα4β2 nAChR (P12390 25-500 limits assumed): as the sequence (P12390 25-500 limits assumed) above

CC[C@H](C)[C@@H]1NC(=O)[C@H](CCC(=O)O)NC(=O)[C@@H]2CCCN2C(=O)[C@H](Cc2c[nH]cn2)NC(=O)[C@H]([C@@H](C)O)NC(=O)[C@H](CCC(N)=O)NC(=O)[C@H](C)NC(=O)[C@@H]2CSSC[C@H](NC(=O)[C@H](CCC(=O)O)NC(=O)[C@@H](N)CC(=O)O)C(=O)N[C@@H](CSSC[C@@H](C(N)=O)NC1=O)C(=O)N[C@@H](CO)C(=O)N[C@@H](CC(N)=O)C(=O)N1CCC[C@H]1C(=O)N[C@@H](CO)C(=O)N2 [QuIA] (H-DECCSNPSCAQTHPEIC-NH2; disulfide 3-9, 4-17)
blocking of ACh-induced current (rα7 nAChR): less than 50%
IC50 (rα4β2 nAChR): > 10 µM
blocking of ACh-induced current (rα4β2 nAChR; at 10 µM): ^a Values in parentheses are a 95% confidence interval (C.I.). ^b Less than 50% blocking at 10 µM. All receptors are of rat (r) or human (h) origin, except α1β1δε, which is of mouse (m) origin. ND, not determined.
IC50 (rα9α10 nAChR): > 10 µM
blocking of ACh-induced current (rα9α10 nAChR; at 10 µM): ^a Values in parentheses are a 95% confidence interval (C.I.). ^b Less than 50% blocking at 10 µM. All receptors are of rat (r) or human (h) origin, except α1β1δε, which is of mouse (m) origin. ND, not determined.
IC50 (rα3β4 nAChR): > 10 µM
blocking of ACh-induced current (rα3β4 nAChR; at 10 µM): ^a Values in parentheses are a 95% confidence interval (C.I.). ^b Less than 50% blocking at 10 µM. All receptors are of rat (r) or human (h) origin, except α1β1δε, which is of mouse (m) origin. ND, not determined.
IC50 (rα6/α3β2β3 nAChR): > 10 µM
blocking of ACh-induced current (rα6/α3β2β3 nAChR; at 10 µM): ^a Values in parentheses are a 95% confidence interval (C.I.). ^b Less than 50% blocking at 10 µM. All receptors are of rat (r) or human (h) origin, except α1β1δε, which is of mouse (m) origin. ND, not determined.
IC50 (rα6/α3β4 nAChR): 0.0907 µM
IC50 (hα9α10 nAChR): > 10 µM
blocking of ACh-induced current (hα9α10 nAChR; at 10 µM): ^a Values in parentheses are a 95% confidence interval (C.I.). ^b Less than 50% blocking at 10 µM. All receptors are of rat (r) or human (h) origin, except α1β1δε, which is of mouse (m) origin. ND, not determined.
IC50 (rα3β2 nAChR): 0.0557 µM
